In article PMC8913300, “Two distinct classes of cochaperones compete for the EEVD motif in heat shock protein 70 to tune its chaperone activities” (The Journal of Biological Chemistry, 2022):

Assays:
DnaJB4 QPD mutant = biological target: T1, DnaJB4 QPD mutant (Homo sapiens, UniProt Q9UDY4, H32Q); experiment: Fluorescence polarization saturation binding of Hsp72 tracer to DnaJB4 QPD mutant; conditions: Fig. 2D, FP saturation binding, 20 nM tracer, 30 min room temperature, mean with 95% confidence interval, four replicates
T1 construct: 6-His with TEV-cleavable linker (N, cleaved yes); made in house; host or cells: Escherichia coli BL21 (DE3) Rosetta
Experimental: (§1) All FP experiments were performed in 384-well, black, low-volume, round-bottom plates at a final assay volume of 18 μl (Corning 4511). Polarization values in millipolarization units (mP) were measured at an excitation wavelength of 485 nm and an emission wavelength of 525 nm, with 100 flashes per read using a Spectramax M5 plate reader (Molecular Devices). All experiments were performed 2 times in quadruplicate. Experimental data were analyzed using GraphPad Prism 9. Saturation binding data were background subtracted, and curves were fit using the model [Agonist] versus response (three parameters). For competition experiments, data were background subtracted to tracer alone and normalized to DMSO control to determine relative tracer displacement.
(§2) A sample of 20 nM Hsp72 tracers (FITC-Ahx-GSGPTIEEVD or FITC-Ahx-GSGPEIEEVD) was incubated with various concentrations of DnaJB4 (WT or QPD mutant) or CHIP in 2× dilutions (final [protein] = 110–0.013 μM) in binding buffer (JDP binding buffer = 50 mM Tris, 15 mM NaCl, 1 mM DTT, 0.01% Triton X-100, pH 8.0; CHIP binding buffer = 25 mM Hepes, 50 mM KCl, 0.01% Triton X-100, pH 7.4). The plate was covered from light and allowed to incubate at room temperature for 30 min prior to reading.

DnaJB4 = biological target: T2, DnaJB4 (Homo sapiens, UniProt Q9UDY4); experiment: Fluorescence polarization saturation binding of Hsp72 tracer to DnaJB4; conditions: Fig. 8A right; FP saturation binding, 20 nM tracer, JDP binding buffer pH 8.0, 30 min room temperature; mean with 95% confidence interval, four replicates
T2 construct: 6-His with TEV-cleavable linker (N, cleaved yes); made in house; host or cells: Escherichia coli BL21 (DE3) Rosetta
Experimental: as §1, §2

Hsp72–DnaJB4 complex [1] = experiment: Luciferase refolding by Hsp72/DnaJB4 in the presence of TPR cochaperones; assay type: biochemical; conditions: 1 μM Hsp72, 100 nM denatured luciferase, 120 nM DnaJB4; CHIP titration or 10 μM TPR protein; 1 h at 37 °C
Experimental: Experiments were performed as described ([14]). Briefly, Renilla luciferase (Promega) was denatured in 8 M GdnHCl for 2 h at room temperature. Hsp72 (1 μM) and denatured luciferase (100 nM) were diluted into a working concentration in buffer containing an ATP regenerating system (23 mM Hepes, 120 mM KAc, 1.2 mM MgAc, 15 mM DTT, 61 mM creatine phosphate, 35 units/ml creatine kinase, and 5 ng/μl bovine serum albumin, pH 7.4). A titration series of DnaJB4 was added, and the reaction was initiated with the addition of 2.5 mM ATP. For competition assays with DnaJB4, complexes of Hsp72 (1 μM), denatured luciferase (100 nM), and DnaJB4 (120 nM) were incubated with either a titration of CHIP or 10 μM of indicated TPR protein. In all cases, the assay was allowed to incubate for 1 h at 37 °C in white, 96-well flat-bottom plates (Corning 3990). Luminescence was measured using the SteadyGlo luminescence reagent (Promega), and percent refolded luciferase was calculated using a standard curve of 100 to 0 nM native luciferase.

Hsp72–DnaJB4 complex [2] = experiment: CHIP inhibition of DnaJB4-stimulated Hsp72 ATPase activity; assay type: biochemical; conditions: 25 μM CHIP, 40-fold excess relative to DnaJB4 (625 nM)
Experimental: ATPase assays were carried out using the malachite green assay as described ([14], [83]). In brief, 1 μM Hsp72 and various concentrations of DnaJB4 were added to clear 96-well plates, and the reactions were initiated by addition of 2.5 mM ATP. Reactions were allowed to proceed for 1 h at 37 °C, after which they were developed using malachite green reagent and quenched with sodium citrate. Plate absorbance was measured at 620 nm, and a standard curve of sodium phosphate was used to convert the absorbance values to pmol ATP/μM Hsp72/min. Vmax and Km, app were derived as fit parameters to a modified Michaelis–Menten model (ATPase rate=Vmax∗[DnaJB4]/(Km, app+[DnaJB4])) where Vmax reflects the maximal increased ATP hydrolysis conferred by DnaJB4 binding and Km,app represents the half-maximal concentration of DnaJB4 binding to and stimulating the ATPase activity of Hsp72.

T1 sequence (Q9UDY4 whole entry H32Q): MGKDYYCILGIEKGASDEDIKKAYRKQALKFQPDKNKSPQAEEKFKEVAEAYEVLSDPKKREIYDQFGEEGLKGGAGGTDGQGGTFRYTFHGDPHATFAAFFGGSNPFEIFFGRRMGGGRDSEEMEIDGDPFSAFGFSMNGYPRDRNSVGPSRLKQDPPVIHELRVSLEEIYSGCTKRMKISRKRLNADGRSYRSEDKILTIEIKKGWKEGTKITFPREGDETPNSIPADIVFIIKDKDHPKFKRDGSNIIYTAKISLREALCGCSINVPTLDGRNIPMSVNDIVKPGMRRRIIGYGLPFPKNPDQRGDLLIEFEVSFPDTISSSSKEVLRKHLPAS
T2 sequence (Q9UDY4 whole entry): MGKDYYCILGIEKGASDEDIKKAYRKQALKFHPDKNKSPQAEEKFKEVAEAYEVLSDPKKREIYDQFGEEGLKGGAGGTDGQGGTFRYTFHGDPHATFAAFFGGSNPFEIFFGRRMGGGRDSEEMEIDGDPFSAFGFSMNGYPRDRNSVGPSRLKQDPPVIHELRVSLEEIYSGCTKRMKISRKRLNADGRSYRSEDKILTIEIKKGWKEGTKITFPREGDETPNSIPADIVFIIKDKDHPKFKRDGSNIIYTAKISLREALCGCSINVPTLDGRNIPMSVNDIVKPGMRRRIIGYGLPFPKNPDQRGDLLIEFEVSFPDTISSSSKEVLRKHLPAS

Compound	Kd (DnaJB4 QPD mutant) [nM]	Kd (DnaJB4) [nM]	effect on client (luciferase) refolding by Hsp72–DnaJB4 (Hsp72–DnaJB4 complex [1])	inhibition of DnaJB4-stimulated ATPase activity (Hsp72–DnaJB4 complex [2])
CC[C@H](C)[C@H](NC(=O)[C@@H](NC(=O)[C@@H]1CCCN1C(=O)CNC(=O)[C@H](CO)NC(=O)CNC(=O)CCCCCNC(=S)Nc1ccc2c(c1)C(=O)OC21c2ccc(O)cc2Oc2cc(O)ccc21)[C@@H](C)O)C(=O)N[C@@H](CCC(=O)O)C(=O)N[C@@H](CCC(=O)O)C(=O)N[C@H](C(=O)N[C@@H](CC(=O)O)C(=O)O)C(C)C [Hsp72 tracer]	2440 ± 280	1970 ± 280		
CHIP: C terminus of Hsc70 interacting protein, E3 ubiquitin ligase, TPR cochaperone, recombinant human			potent inhibitor	significant inhibition
